Measured values published in the NIST ThermoML archive (doi:10.1016/j.jct.2018.05.029).
“And” between values parts separate entries of the source, which are not always exact repeats. Equal entries are not always repeated.

Experiments:
[1] = Molar enthalpy of transition or fusion; details: Crystal; Adiabatic calorimetry

Cc1cc2ccccc2[nH]1 [2-methylindole]
Details	mass density	molar entropy [J/K/mol]	vapor or sublimation pressure
10 K, Crystal, Vacuum adiabatic calorimetry	–	0.7816	–
20 K, Crystal, Vacuum adiabatic calorimetry	–	5.097	–
30 K, Crystal, Vacuum adiabatic calorimetry	–	11.88	–
40 K, Crystal, Vacuum adiabatic calorimetry	–	19.5	–
50 K, Crystal, Vacuum adiabatic calorimetry	–	27.26	–
60 K, Crystal, Vacuum adiabatic calorimetry	–	34.95	–
70 K, Crystal, Vacuum adiabatic calorimetry	–	42.45	–
80 K, Crystal, Vacuum adiabatic calorimetry	–	49.75	–
90 K, Crystal, Vacuum adiabatic calorimetry	–	56.85	–
100 K, Crystal, Vacuum adiabatic calorimetry	–	63.76	–
120 K, Crystal, Vacuum adiabatic calorimetry	–	77.12	–
140 K, Crystal, Vacuum adiabatic calorimetry	–	89.97	–
160 K, Crystal, Vacuum adiabatic calorimetry	–	102.47	–
180 K, Crystal, Vacuum adiabatic calorimetry	–	114.71	–
200 K, Crystal, Vacuum adiabatic calorimetry	–	126.76	–
220 K, Crystal, Vacuum adiabatic calorimetry	–	138.69	–
240 K, Crystal, Vacuum adiabatic calorimetry	–	150.54	–
260 K, Crystal, Vacuum adiabatic calorimetry	–	162.33	–
280 K, Crystal, Vacuum adiabatic calorimetry	–	174.1	–
298.15 K, Crystal, Vacuum adiabatic calorimetry	–	184.78	–
298.15 K, Liquid, Vacuum adiabatic calorimetry	–	224.56	–
300 K, Crystal, Vacuum adiabatic calorimetry	–	185.87	–
300 K, Liquid, Vacuum adiabatic calorimetry	–	225.95	–
320 K, Crystal, Vacuum adiabatic calorimetry	–	197.68	–
320 K, Liquid, Vacuum adiabatic calorimetry	–	240.78	–
331.97 K, Crystal, Vacuum adiabatic calorimetry	–	204.77	–
331.97 K, Liquid, Vacuum adiabatic calorimetry	–	249.48	–
339.98 K, Liquid, Inclined piston gauge	–	–	0.022 kPa
339.99 K, Liquid, Inclined piston gauge	–	–	0.022 kPa
340 K, Liquid, Vacuum adiabatic calorimetry	–	255.25	–
349.98 K, Liquid, Inclined piston gauge	–	–	0.0439 kPa
359.98 K, Liquid, Inclined piston gauge	–	–	0.0849 kPa
360 K, Liquid, Vacuum adiabatic calorimetry	–	269.41	–
369.98 K, Liquid, Inclined piston gauge	–	–	0.1565 kPa and 0.1564 kPa
379.98 K, Liquid, Inclined piston gauge	–	–	0.2769 kPa
380 K, Liquid, Vacuum adiabatic calorimetry	–	283.28	–
389.98 K, Liquid, Inclined piston gauge	–	–	0.4731 kPa
399.97 K, Liquid, Inclined piston gauge	–	–	0.7822 kPa
400 K, Liquid, Vacuum adiabatic calorimetry	–	296.88	–
409.97 K, Liquid, Inclined piston gauge	–	–	1.255 kPa
419.96 K, Liquid, Inclined piston gauge	–	–	1.958 kPa
420 K, Liquid, Vacuum adiabatic calorimetry	–	310.21	–
424.96 K, Liquid, Inclined piston gauge	–	–	2.423 kPa
424.97 K, Liquid, Inclined piston gauge	–	–	2.423 kPa
427.25 K, Liquid, Twin ebulliometer	–	–	2.666 kPa
429.96 K, Liquid, Inclined piston gauge	–	–	2.979 kPa
437.34 K, Liquid, Twin ebulliometer	–	–	4 kPa
440 K, Liquid, Vacuum adiabatic calorimetry	–	323.28	–
444.87 K, Liquid, Twin ebulliometer	–	–	5.333 kPa
456.04 K, Liquid, Twin ebulliometer	–	–	7.999 kPa
460 K, Liquid, Small sample (50 mg) DSC	–	336.12	–
464.4 K, Liquid, Twin ebulliometer	–	–	10.67 kPa
471.16 K, Liquid, Twin ebulliometer	–	–	13.33 kPa
478.17 K, Liquid, Twin ebulliometer	–	–	16.66 kPa
480 K, Liquid, Small sample (50 mg) DSC	–	348.73	–
483.99 K, Liquid, Twin ebulliometer	–	–	19.93 kPa
491.65 K, Liquid, Twin ebulliometer	–	–	25.02 kPa and 25.02 kPa
499.35 K, Liquid, Twin ebulliometer	–	–	31.18 kPa
500 K, Liquid, Small sample (50 mg) DSC	–	361.11	–
507.08 K, Liquid, Twin ebulliometer	–	–	38.56 kPa
514.86 K, Liquid, Twin ebulliometer	–	–	47.38 kPa
520 K, Liquid, Small sample (50 mg) DSC	–	373.29	–
522.68 K, Liquid, Twin ebulliometer	–	–	57.82 kPa
530.55 K, Liquid, Twin ebulliometer	–	–	70.12 kPa
538.45 K, Liquid, Twin ebulliometer	–	–	84.53 kPa
540 K, Liquid, Small sample (50 mg) DSC	–	385.27	–
546.4 K, Liquid, Twin ebulliometer	–	–	101.33 kPa
554.39 K, Liquid, Twin ebulliometer	–	–	120.79 kPa
560 K, Liquid, Small sample (50 mg) DSC	–	397.05	–
562.43 K, Liquid, Twin ebulliometer	–	–	143.25 kPa
570.5 K, Liquid, Twin ebulliometer	–	–	169.02 kPa
578.62 K, Liquid, Twin ebulliometer	–	–	198.49 kPa
580 K, Liquid, Small sample (50 mg) DSC	–	408.64	–
586.77 K, Liquid, Twin ebulliometer	–	–	232.02 kPa
594.97 K, Liquid, Twin ebulliometer	–	–	270.02 kPa
600 K, Liquid, Small sample (50 mg) DSC	–	420.05	–
620 K, Liquid, Small sample (50 mg) DSC	–	431.28	–
640 K, Liquid, Small sample (50 mg) DSC	–	442.34	–
660 K, Liquid, Small sample (50 mg) DSC	–	453.23	–
680 K, Liquid, Small sample (50 mg) DSC	–	463.97	–
700 K, Liquid, Small sample (50 mg) DSC	–	474.57	–
788.8 K, Gas, DSC	176.5 kg/m3	–	–
795.1 K, Liquid, DSC	470.4 kg/m3	–	–
800.7 K, Liquid, DSC	433.9 kg/m3	–	–
802.9 K, Liquid, DSC	399.3 kg/m3	–	–
803 K, Gas, DSC	183.3 kg/m3	–	–
803.6 K, Liquid, DSC	360.9 kg/m3	–	–
807 K, Gas, DSC	238.4 kg/m3	–	–
809.2 K, Gas, DSC	264.7 kg/m3	–	–
809.6 K, Gas, DSC	268.7 kg/m3 and 299.5 kg/m3	–	–

101.33 kPa, Liquid
Details	mass density [kg/m3]
298.15 K, From volume and mass of a pressed pellet	1070
342 K, Pycnometric method	1020

Details	Triple point temperature [K]
Crystal, Adiabatic calorimetry	331.97

Details	Molar enthalpy of transition or fusion [kcal/mol]
[1]	3.547
